The values below come from US20080261994A1, “CYCLOPROPANE COMPOUNDS AND PHARMACEUTICAL USE THEREOF” (Japan Tobacco Inc., priority 2003, published 2008).

By IC50 is commonly meant the midpoint of a concentration-inhibition curve.

Common to all, as to type: biochemical
One experiment concerns the target T1, aggrecanase-1 (Homo sapiens, UniProt O75173).
T1 sequence (O75173 213-837): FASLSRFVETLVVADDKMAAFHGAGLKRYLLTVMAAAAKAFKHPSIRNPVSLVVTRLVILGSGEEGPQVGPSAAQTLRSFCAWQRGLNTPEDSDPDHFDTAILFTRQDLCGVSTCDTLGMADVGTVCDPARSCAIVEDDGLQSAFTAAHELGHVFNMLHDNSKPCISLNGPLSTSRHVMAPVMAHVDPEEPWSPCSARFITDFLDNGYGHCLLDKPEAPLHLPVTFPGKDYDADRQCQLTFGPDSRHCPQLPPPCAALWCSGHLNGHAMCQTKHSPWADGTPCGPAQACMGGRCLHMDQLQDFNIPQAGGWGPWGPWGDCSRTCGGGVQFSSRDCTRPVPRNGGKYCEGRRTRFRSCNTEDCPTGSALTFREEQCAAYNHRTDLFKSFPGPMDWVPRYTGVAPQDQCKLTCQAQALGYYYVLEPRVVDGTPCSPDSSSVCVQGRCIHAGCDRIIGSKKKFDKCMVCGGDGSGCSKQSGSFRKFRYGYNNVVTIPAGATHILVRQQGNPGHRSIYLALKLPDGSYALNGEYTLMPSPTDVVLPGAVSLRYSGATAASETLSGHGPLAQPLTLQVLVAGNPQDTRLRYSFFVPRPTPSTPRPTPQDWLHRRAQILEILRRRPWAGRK
Kind of experiment: Aggrecanase-1 inhibitory action (Particle Assay, GAG release from aggrecan-containing polyacrylamide particles). The following applies: aggrecanase-1 inhibitory action; read-out: IC50 AG1 (Experimental Example 1). The method, boiled down:
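Enzyme and compound incubated with aggrecan-containing polyacrylamide particles in Tris-HCl buffer at 37° C for 15 h. Released GAG in supernatant measured with 1,9-dimethylmethylene blue at 595 nm against chondroitin sulfate standard; % inhibition from enzyme-free and inhibitor-free wells, reported as TC50 (μM).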

A further experiment has as its target T2, MMP-1 (Homo sapiens, UniProt P03956).
T2 sequence (P03956 100-469): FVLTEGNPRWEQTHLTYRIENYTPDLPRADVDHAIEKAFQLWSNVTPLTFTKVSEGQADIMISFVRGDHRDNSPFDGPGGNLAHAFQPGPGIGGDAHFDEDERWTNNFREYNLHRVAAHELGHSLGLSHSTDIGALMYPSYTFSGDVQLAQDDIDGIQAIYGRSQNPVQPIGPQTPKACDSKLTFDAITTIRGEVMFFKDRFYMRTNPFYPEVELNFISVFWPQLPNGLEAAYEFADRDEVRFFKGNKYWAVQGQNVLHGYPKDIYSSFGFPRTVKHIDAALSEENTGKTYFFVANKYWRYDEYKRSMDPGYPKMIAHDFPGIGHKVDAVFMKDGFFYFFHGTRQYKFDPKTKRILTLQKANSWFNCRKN
The experiment can be described thus: MMP-1 inhibitory action (Type I collagen Activity Measurement kit, FITC-labeled collagen type I). The following applies: MMP-1 inhibitory action, FITC-labeled collagen type I, 37° C. for 3 hr; read-out: IC50 MMP1 (Experimental Example 2).

The target of a further experiment is T3, Recombinant Human MMP-13 (Homo sapiens, UniProt P45452).
T3 construct: purchased R&D systems 511-MM
The experiment can be described thus: MMP-13 inhibitory activity (MMP-13 specific fluorescent substrate with quencher). The following applies: Recombinant Human MMP-13, fluorescent substrate, 25° C. for 1 h; read-out: IC50 MMP13 (Experimental Example 3). The method, boiled down:
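Recombinant human MMP-13 with test compound, reaction started with quenched fluorogenic peptide 7-MCA-Pro-CHA-Gly-NVal-His-Ala-DPA in Tris-HCl buffer, 1 h at 25 °C, stopped with acetic acid. Fluorescence at Ex 325/Em 405 nm; % inhibition versus enzyme-free and inhibitor-free wells, reported as IC50 (μM).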

Bounds are passed on as bounds.

Take `C[C@]1(c2ccccc2)C[C@@]1(NS(=O)(=O)c1ccc(-c2cc(C(F)(F)F)on2)s1)C(=O)O` [Example 2-6, (1S,2R)-2-methyl-2-phenyl-1-[5-(5-trifluoromethyl-isoxazol-3-yl)-thiophene-2-sulfonylamino]-cyclopropanecarboxylic acid]: the IC50 was < 100 nM at aggrecanase-1, ≥ 1 µM on MMP-1 and < 1000 nM at Recombinant Human MMP-13.

On to `C[C@@H]1[C@H](c2ccccc2)[C@]1(NS(=O)(=O)c1ccc(-c2cc(C(F)(F)F)on2)s1)C(=O)O` [Example 2-7, (1S,2R,3R)-2-methyl-3-phenyl-1-[5-(5-trifluoromethyl-isoxazol-3-yl)-thiophene-2-sulfonylamino]-cyclopropanecarboxylic acid], for which the IC50 on aggrecanase-1 is < 100 nM; on MMP-1, < 1 µM; at Recombinant Human MMP-13 it was < 100 nM.

As for `O=C(O)C1(NS(=O)(=O)c2ccc(-c3ccc(Cl)cc3)s2)C2CCCc3ccccc3C21` (stereo not drawn) [Example 2-8, (1R*,1aS*,8bS*)-1-[5-(4-chloro-phenyl)thiophene-2-sulfonylamino]-1,1a,2,3,4,8b-hexahydrobenzo[a]cyclopropane[c]cyclohepten-1-carboxylic acid], the IC50 is < 100 nM at aggrecanase-1, ≥ 1 µM on MMP-1 and < 100 nM on Recombinant Human MMP-13.

On to `C[C@@H]1[C@H](c2ccccc2)[C@]1(NS(=O)(=O)c1ccc(-c2cc(C(C)(F)F)on2)s1)C(=O)O` [Example 2-9, (1S,2R,3R)-1-{5-[5-(1,1-difluoro-ethyl)-isoxazol-3-yl]-thiophene-2-sulfonylamino}-2-methyl-3-phenyl-cyclopropanecarboxylic acid], for which the IC50 on aggrecanase-1 is < 100 nM; on MMP-1, < 0.1 µM; at Recombinant Human MMP-13, < 100 nM.

In the case of `CC1[C@H](c2ccccc2)[C@]1(NS(=O)(=O)N1CCN(C(=O)Nc2ccccc2)CC1)C(=O)O` (stereo partly drawn) [Example 2-11, (1S,2R,3R)-2-methyl-3-phenyl-1-(4-phenylcarbamoyl-piperazine-1-sulfamoylamino)-cyclopropanecarboxylic acid], the values for the IC50 on aggrecanase-1, at MMP-1 and on Recombinant Human MMP-13 were ≥ 1000 nM, ≥ 1 µM and ≥ 1000 nM, respectively.

On to `C[C@]1(c2ccccc2)C[C@@]1(NS(=O)(=O)c1ccc(-c2ccc(Cl)c(N)c2)s1)C(=O)O` [Example 2-12, (1S,2R)-1-[5-(3-amino-4-chloro-phenyl)-thiophene-2-sulfonylamino]-2-methyl-2-phenyl-cyclopropanecarboxylic acid], for which the figures for the half-inhibitory concentration (IC50) on aggrecanase-1, at MMP-1 and on Recombinant Human MMP-13 were < 100 nM, < 1 µM and < 100 nM, respectively.

For the compound `Cn1nc(C(F)(F)F)cc1-c1ccc(S(=O)(=O)NC2(C(=O)O)CC2c2ccccc2)s1` (stereo not drawn) [Example 2-14], the half-inhibitory concentration (IC50) is ≥ 10000 nM on aggrecanase-1, ≥ 10 µM at MMP-1 and ≥ 10000 nM on Recombinant Human MMP-13.

`O=C(O)C1(NS(=O)(=O)N2CC(Oc3ccc(Cl)cc3)C2)CC1c1ccccc1` (stereo not drawn) [Example 2-15]: the 50% inhibitory concentration (IC50) at aggrecanase-1 is ≥ 10000 nM; at MMP-1 it was ≥ 10 µM; on Recombinant Human MMP-13, ≥ 1000 nM.

Turning to `Cn1nc(-c2ccc(S(=O)(=O)NC3(C(=O)O)CC3c3ccccc3)s2)cc1C(F)(F)F` (stereo not drawn) [Example 2-16], the IC50 was ≥ 10000 nM at aggrecanase-1, ≥ 10 µM at MMP-1 and < 1000 nM at Recombinant Human MMP-13.

For `O=C(O)C1(NS(=O)(=O)c2ccc(-c3ccc(OC(F)(F)F)cc3)s2)CC1c1ccccc1` (stereo not drawn) [Example 2-17], the IC50 at aggrecanase-1 was ≥ 1000 nM; at MMP-1 it was ≥ 10 µM; on Recombinant Human MMP-13, < 100 nM.

For the compound `O=C(O)C1(NS(=O)(=O)c2ccc(-c3ccc(Cl)c(Cl)c3)s2)CC1c1ccccc1` (stereo not drawn) [Example 2-18], the IC50 at aggrecanase-1 is < 1000 nM; at MMP-1 it was ≥ 1 µM; on Recombinant Human MMP-13, < 1000 nM.

As for `O=C(O)C1(NS(=O)(=O)c2ccc(-c3ccc(C(F)(F)F)cc3)s2)CC1c1ccccc1` (stereo not drawn) [Example 2-19], the IC50 was < 1000 nM on aggrecanase-1, ≥ 10 µM on MMP-1 and < 1000 nM at Recombinant Human MMP-13.

With `Cc1ccc(-c2ccc(S(=O)(=O)NC3(C(=O)O)CC3c3ccccc3)s2)cc1` (stereo not drawn) [Example 2-20], the half-inhibitory concentration (IC50) at aggrecanase-1 was < 1000 nM; on MMP-1 it was ≥ 1 µM; on Recombinant Human MMP-13, < 100 nM.

For the compound `O=C(O)C1(NS(=O)(=O)c2ccc(-c3ccc(F)cc3)s2)CC1c1ccccc1` (stereo not drawn) [Example 2-21], the half-maximal inhibitory concentration (IC50) at aggrecanase-1 was < 1000 nM; at MMP-1, ≥ 1 µM; on Recombinant Human MMP-13, < 1000 nM.

`O=C(O)C1(NS(=O)(=O)c2ccc(-c3ccc(Cl)cc3)s2)CC1c1ccccc1OCc1cccnc1` (stereo not drawn) [Example 2-22]: the IC50 at aggrecanase-1 is < 100 nM; on MMP-1, ≥ 10 µM; at Recombinant Human MMP-13, < 100 nM.

Consider `O=C(O)C1(NS(=O)(=O)c2ccc(-c3ccc(Cl)cc3)s2)CC1c1ccccc1OCc1ccccn1` (stereo not drawn) [Example 2-23], for which the results for the IC50 at aggrecanase-1, at MMP-1 and at Recombinant Human MMP-13 were < 1000 nM, ≥ 10 µM and < 1000 nM, respectively.

For the compound `O=C(O)C1(NS(=O)(=O)c2ccc(-c3ccc(Cl)cc3)s2)CC1c1ccccc1Oc1cccnc1` (stereo not drawn) [Example 2-24], the results for the IC50 at aggrecanase-1, at MMP-1 and on Recombinant Human MMP-13 were < 1000 nM, ≥ 10 µM and < 1000 nM, respectively.

In the case of `CC(C)(O)COc1ccccc1C1CC1(NS(=O)(=O)c1ccc(-c2ccc(Cl)cc2)s1)C(=O)O` (stereo not drawn) [Example 2-25], the figures for the IC50 on aggrecanase-1, at MMP-1 and at Recombinant Human MMP-13 were < 100 nM, ≥ 10 µM and < 1000 nM, respectively.

With `O=C(O)[C@]1(NS(=O)(=O)c2ccc(-c3ccc(Cl)nc3)s2)C[C@@H]1c1ccccc1` [Example 2-27], the IC50 at aggrecanase-1 was < 1000 nM; on MMP-1, ≥ 10 µM; at Recombinant Human MMP-13, < 1000 nM.

Regarding `O=C(O)C1(NS(=O)(=O)c2ccc(-c3ccc(Cl)cc3)s2)CC1c1cccc(CNc2cccnc2)c1` (stereo not drawn) [Example 2-32], the IC50 at aggrecanase-1 is < 100 nM; on MMP-1, ≥ 10 µM; on Recombinant Human MMP-13, < 100 nM.

On to `O=C(O)[C@]1(NS(=O)(=O)c2ccc(C3=NOC(O)(C(F)(F)F)C3)s2)C[C@@H]1c1ccccc1` (stereo partly drawn) [Example 2-35], for which the concentration for half-maximal inhibition (IC50) on aggrecanase-1 is < 1000 nM; at MMP-1, ≥ 10 µM; on Recombinant Human MMP-13 it was < 1000 nM.

As for `O=C(O)C1(NS(=O)(=O)c2ccc(-c3ccc(Cl)cc3)s2)CC1c1cccc(OCc2ccccc2)c1` (stereo not drawn) [Example 2-36], the concentration for half-maximal inhibition (IC50) was < 1000 nM at aggrecanase-1, ≥ 10 µM at MMP-1 and < 1000 nM on Recombinant Human MMP-13.

With `CN(Cc1cccnc1)c1cccc(C2CC2(NS(=O)(=O)c2ccc(-c3ccc(Cl)cc3)s2)C(=O)O)c1` (stereo not drawn) [Example 2-37], the 50% inhibitory concentration (IC50) at aggrecanase-1 was < 100 nM; on MMP-1, ≥ 10 µM; at Recombinant Human MMP-13 it was < 100 nM.

On to `Cc1ccc(-c2ccc(S(=O)(=O)N[C@@]3(C(=O)O)C[C@@H]3c3ccccc3)s2)s1` [Example 2-39], for which the IC50 at aggrecanase-1 was < 1000 nM; on MMP-1, ≥ 1 µM; on Recombinant Human MMP-13 it was < 100 nM.

Turning to `Cc1ccc(-c2ccccc2C2CC2(NS(=O)(=O)c2ccc(-c3ccc(Cl)cc3)s2)C(=O)O)cc1` (stereo not drawn) [Example 2-40], the IC50 at aggrecanase-1 was < 1000 nM; at MMP-1, ≥ 10 µM; at Recombinant Human MMP-13, < 1000 nM.

As to `O=C(O)C1(NS(=O)(=O)c2ccc(-c3ccc(Cl)cc3)s2)CC1C1CCCCC1` (stereo not drawn) [Example 2-41], the IC50 on aggrecanase-1 was < 1000 nM; on MMP-1, ≥ 10 µM; at Recombinant Human MMP-13 it was < 1000 nM.

`CC(C)(O)COc1cccc(C2CC2(NS(=O)(=O)c2ccc(-c3ccc(Cl)cc3)s2)C(=O)O)c1` (stereo not drawn) [Example 2-42]: the IC50 on aggrecanase-1 was < 100 nM; on MMP-1 it was ≥ 10 µM; at Recombinant Human MMP-13 it was < 100 nM.

Turning to `O=C(O)[C@]1(NS(=O)(=O)c2ccc(-c3cc(C(F)(F)F)on3)s2)C[C@@H]1c1ccccc1` [Example 2-43], the IC50 at aggrecanase-1 is < 100 nM; at MMP-1, < 1 µM; on Recombinant Human MMP-13 it was < 100 nM.

Turning to `O=C(O)[C@]1(NS(=O)(=O)c2ccc(-c3noc(C(F)(F)F)n3)s2)C[C@@H]1c1ccccc1` [Example 2-44], the values for the half-inhibitory concentration (IC50) on aggrecanase-1, on MMP-1 and at Recombinant Human MMP-13 were ≥ 1000 nM, ≥ 10 µM and ≥ 1000 nM, respectively.
